{
  "source": "patent US20260166182A1",
  "about": "“CYANINE-BASED FLUOROPHORES” (The General Hospital Corporation, priority 2022, published 2026)",
  "test_system": "lung carcinoma (LLC cell line)",
  "test": "NIR-II fluorescence imaging of subcutaneous LLC tumor-bearing C57BL/6 mice",
  "assay_type": "in vivo, mouse",
  "text": "General NIR-II fluorescence imaging: A 640×512-pixel InGaAs camera (Ninox640, Raptor Photonics) and macro zoom lens (0-10×; Navitar Zoom 7000 with SWIR coating) along with 900, 1070, 1100, and 1200 nm long-pass (LP) filters from either Thorlab or Edmund optics were used to collect the NIR-II signal. InGaAs camera played a role as an open-air imaging system along with the support of the FLARE system. An 808 nm fiber-coupled diode laser ([…] at the sample) was used as an excitation source. Data acquisition was done using in-house developed software. […] Mice were imaged with intact skin using InGaAs camera. At least 3 mice were analyzed for each sample. Tumor-bearing mouse models: Animals were housed in an AAALAC-certified facility and were studied under the protocols approved by the MGH IACUC (2016N000136). Mice were maintained under anesthesia with isoflurane and oxygen during the experiment. To establish the various tumor-bearing mouse models including lung carcinoma, pancreatic ductal adenocarcinoma (PDAC), and triple negative breast adenocarcinoma, eight-week-old C57BL/6 mice (Taconic Farms, Germantown, NY) were subcutaneously injected with 2×10^5 LLC, Pan02, and E0771 cells suspended in DMEM/Matrigel (100 μL, 50 v/v %) in the flank region, respectively. Female C57BL/6 mice were used for the breast cancer (E0771) model, otherwise male mice were used. […] Statistical analysis: The fluorescence and background intensities of a region of interest over each tissue were quantified using customized imaging software and ImageJ v1.48 (National Institutes of Health, Bethesda, MD). The signal-to-background ratio (SBR) was calculated as SBR=fluorescence/background, where background was the fluorescence intensity of muscle. Data were reported as mean±s.e.m. with a minimum of three biological replicates. Student's t-test statistical analysis was performed to evaluate the significance of the experimental data. The differences among groups were determined using one-way ANOVA analysis to assess the statistical differences among more than two groups. […] The data was indicated with *p<0.05, ** p<0.01, *** p<0.001, and **** p<0.0001.",
  "data": [
    {"smiles": "CCCCN1/C(=C/C=C2\\CCCC(/C=C/C3=[N+](CCCC)c4ccc(Cl)cc4C3(C)C)=C2Cl)C(C)(C)c2cc(Cl)ccc21", "note": "[SH1, 1-butyl-2-((E)-2-((E)-3-(2-((E)-1-butyl-5-chloro-3,3-dimethylindolin-2-ylidene)ethylidene)-2-chlorocyclohex-1-en-1-yl)vinyl)-5-chloro-3,3-dimethyl-3H-indol-1-ium]", "values": [
      {"measurement": "tumor targeting / tumor signal", "setting": "intravenous, NIR-II imaging until 48 h post-injection", "result": "superb signal intensity in tumor area"},
      {"measurement": "TBR", "setting": "larger-sized lung tumors", "result": 23.7}
    ]}
  ]
}
